Laboratory results published in ChEMBL document CHEMBL3507680, “University of Dundee, Gates Library screen for HepG2 cell viability”.

Assay: Human HepG2 cell viability assay in 384 well format
Assay type: toxicity, cell-based
Parameters: dose 125 nL, time 70.5 hour; concentration not given beside the values
Conditions: HepG2 cells, read-out: Inhibition
`CN(CCC1CCCCO1)c1nncc(-c2ccccc2)n1` (stereo not drawn) gave a cytotoxicity at 70.5 h of -0.965%.
In the case of `Cc1ccc2cccc(C(=O)NCCOCC3CC3)c2n1`, the cytotoxicity at 70.5 h is reported as -0.418%.
`c1cnc(NCc2nnn3c2CN(CC2CC2)CCC3)nc1` showed a cytotoxicity at 70.5 h of -4.25%.
`CCc1cc(NCC(O)CN2CCCC2)ncn1` (stereo not drawn) gave a cytotoxicity at 70.5 h of 21.2%.
Compound `c1ccc(-n2cc(CN3CCCC3Cn3cccn3)nn2)cc1` (stereo not drawn) has a cytotoxicity at 70.5 h of -10.7%.
`CN1CCCCCC1C(=O)N1CCCN(c2ccccc2)CC1` (stereo not drawn) showed a cytotoxicity at 70.5 h of 4.68%.
`FC(F)(F)COCCN1CCOC(Cn2cccn2)C1` (stereo not drawn) gave a cytotoxicity at 70.5 h of -0.0607%.
For `CSCc1cccc(C(=O)N2CCN(CC(C)O)CC2)c1` (stereo not drawn), the cytotoxicity at 70.5 h was -14.6%.
Work on `Cc1cnn(CC2CN(CC(=O)Nc3ccncc3)CCO2)c1` (stereo not drawn) yielded a cytotoxicity at 70.5 h of -5.95%.
With `NCC1CCCN(c2nc(-c3ccccc3)nc3c2CCNCC3)C1` (stereo not drawn) the cytotoxicity at 70.5 h was 5.19%.
`Cn1cc(CN2CCC[C@]3(C(=O)O)CN(c4ncccn4)C[C@@H]3C2)cn1` gave a cytotoxicity at 70.5 h of -12%.
In the case of `CN(C)C(=O)CO[C@H]1CO[C@@]2(CCN(Cc3ccsc3)C2)C1`, the cytotoxicity at 70.5 h is reported as -6.3%.
For `COCCN1C[C@H]2CCN(C(=O)Nc3ccccc3C)CC[C@H]2S1(=O)=O`, the cytotoxicity at 70.5 h was -11.5%.
`CCCNC(=O)C1(CC2CC(c3ccccc3OC)=NO2)CCOCC1` (stereo not drawn) showed a cytotoxicity at 70.5 h of 6.7%.
Compound `CO[C@H]1CCN(C(=O)Cc2ccc(F)cc2)[C@H]1Cc1ccncc1` has a cytotoxicity at 70.5 h of -8.07%.
Compound `Cn1ncc2c1CCCC2NCc1ccc(Br)s1` (stereo not drawn) has a cytotoxicity at 70.5 h of 3.28%.
`Cc1cn2c(n1)CCC(NC(=O)c1ccc(OCC3CC3)nc1)C2` (stereo not drawn) showed a cytotoxicity at 70.5 h of -3.71%.
For `COc1c(CNC(c2ccccc2)c2nccn2C)c(C)nn1C` (stereo not drawn), the cytotoxicity at 70.5 h was -0.0475%.
`CCCN1CCN(Cc2cc3cc(OCC)ccc3[nH]c2=O)CC1` gave a cytotoxicity at 70.5 h of -6.17%.
With `CC(C)=CCC1(C(=O)O)CCCN(c2ccnc(N)n2)C1` (stereo not drawn) the cytotoxicity at 70.5 h was 17%.
`O=C(NCCO)C1(Cc2cc(-c3ccc(F)cc3F)no2)CCOCC1` gave a cytotoxicity at 70.5 h of -12.3%.
For `CCn1c(=O)n(CC)c2cc(S(N)(=O)=O)ccc21`, the cytotoxicity at 70.5 h was -2.33%.
`CNC(=O)[C@@]12CCCN(c3ncccn3)[C@@H]1CN(C(=O)NC(C)C)C2` showed a cytotoxicity at 70.5 h of 34.2%.
In the case of `COc1cccc(CN2CCC(c3nccn3C(C)C)CC2)c1`, the cytotoxicity at 70.5 h is reported as -13.1%.
Compound `CCOc1ccc(CN2CCN(C(=O)c3ccc(C)n3C)CC2)cc1` has a cytotoxicity at 70.5 h of -0.122%.
With `NC(=O)CN1CCOCC(Cc2cccc(F)c2)C1` (stereo not drawn) the cytotoxicity at 70.5 h was -12.7%.
In the case of `COCCOCC(=O)Nc1cc(C)ccc1F`, the cytotoxicity at 70.5 h is reported as 4.73%.
Work on `Cc1cc2c(=O)n(CCOCCO)cnc2s1` yielded a cytotoxicity at 70.5 h of -5.77%.
In the case of `Cc1cc(C)c2c(NC(C)c3nncn3C3CCCC3)ncnc2n1` (stereo not drawn), the cytotoxicity at 70.5 h is reported as -4.92%.
For `CC(=O)N1CC(C)CN(C(=O)c2cnccn2)c2ccccc21` (stereo not drawn), the cytotoxicity at 70.5 h was -12.2%.
`Cn1ncc2c1CCCC2NCc1cccc2c1OCCCO2` (stereo not drawn) gave a cytotoxicity at 70.5 h of 0.963%.
`O=c1[nH]nc(CCCN2CCOCC2)n1Cc1cccc(F)c1` gave a cytotoxicity at 70.5 h of -2.64%.
In the case of `Cc1cc(C(=O)NCc2csc(N(C)C)n2)c2ccc(C)c(C)c2n1`, the cytotoxicity at 70.5 h is reported as 0.264%.
Work on `CCn1c(CN(C)Cc2csc(C)n2)nc2cc(F)ccc21` yielded a cytotoxicity at 70.5 h of -20.1%.
Work on `O=C(Nc1cn[nH]c1)N(CCCO)C1CCc2ccccc21` (stereo not drawn) yielded a cytotoxicity at 70.5 h of -4.28%.
Work on `Cc1cc2ncc(C(C)NCc3cccnc3)c(C)n2n1` (stereo not drawn) yielded a cytotoxicity at 70.5 h of -3.89%.
`O=C(c1cn(-c2ccccc2)nn1)N1CCOCC(O)C1` (stereo not drawn) gave a cytotoxicity at 70.5 h of 15.7%.
For `CC1(c2ccccc2)CCCN(Cc2nnc(-c3cccnc3)o2)C1` (stereo not drawn), the cytotoxicity at 70.5 h was -3.27%.
Compound `N#Cc1c(F)cccc1Nc1cnn(CC(O)CN2CCOCC2)c1` (stereo not drawn) has a cytotoxicity at 70.5 h of -102%.
Compound `CCc1cnc(NCC(CC)N2CCOCC2)nc1` (stereo not drawn) has a cytotoxicity at 70.5 h of -6.68%.
In the case of `CCC(CC)NC(=O)NCc1ccnc(-n2ccnc2C)c1`, the cytotoxicity at 70.5 h is reported as -2.5%.
`CC(C)Cc1nnc(NCc2ccsc2)o1` gave a cytotoxicity at 70.5 h of -5.09%.
`c1cncc(C[C@@H]2CC[C@H](CN3CCCOCC3)O2)c1` gave a cytotoxicity at 70.5 h of -10.6%.
`COc1cccc(OC)c1C(=O)N1CC(=O)N(C2CCC2)CC(O)C1` (stereo not drawn) showed a cytotoxicity at 70.5 h of -0.00128%.
Work on `C[C@@H]1CN(c2nc(O)cc(Cc3ccccc3F)n2)C[C@H](C)O1` yielded a cytotoxicity at 70.5 h of 19.5%.
Work on `O=C(Nc1ccc(F)c(Cl)c1)N1CCCN([C@H]2COC[C@@H]2O)CC1` yielded a cytotoxicity at 70.5 h of -14.1%.
For `CN1CCN(C(=O)c2n[nH]c3c2CCN(Cc2nccs2)C3)CC1`, the cytotoxicity at 70.5 h was -11.9%.
In the case of `CCN(CC)CCCN1CCC(NC(=O)OC(C)(C)C)CC1`, the cytotoxicity at 70.5 h is reported as -4.36%.
In the case of `Cc1ccnc(NCCNC(=O)C2CC3(CCNCC3)CN2C)c1` (stereo not drawn), the cytotoxicity at 70.5 h is reported as -3.92%.
Compound `Fc1cccc(N2CCCC3(CN(Cc4cccnc4)CCO3)C2)c1` (stereo not drawn) has a cytotoxicity at 70.5 h of -6.89%.
`N#Cc1cc(F)ccc1CN1CCCCC1Cn1cncn1` (stereo not drawn) gave a cytotoxicity at 70.5 h of -4.9%.
With `c1ccc(OCc2nc(CNCCn3cccn3)cs2)cc1` the cytotoxicity at 70.5 h was 27%.
`Cc1noc(C2CCCN(C(=O)c3scnc3Cl)C2)n1` (stereo not drawn) gave a cytotoxicity at 70.5 h of 13%.
With `O=C(CSc1nncs1)N1CCN(Cc2ccc(Cl)cc2)CC1` the cytotoxicity at 70.5 h was 1.53%.
Work on `c1ccc(-c2nc3c(c(NCCc4c[nH]cn4)n2)CCNC3)cc1` yielded a cytotoxicity at 70.5 h of -12.1%.
Compound `Cc1cn2nc(N3CCn4c(nnc4C(C)C)C3)sc2n1` has a cytotoxicity at 70.5 h of 12%.
For `Cc1ccc2c(c1)OC(C)(C)CC2NC(=O)C1CCN(S(C)(=O)=O)CC1` (stereo not drawn), the cytotoxicity at 70.5 h was -5.08%.
With `Cc1cc(C[C@@H]2COC[C@@H]2NC(=O)CN2CCCCCC2)on1` the cytotoxicity at 70.5 h was -10.1%.
